Source: paper PMC10581251, “Antisense inhibition of RNA polymerase α subunit of Clostridioides difficile” (Microbiology Spectrum, 2023)
Values after ≈ are worked out from the molar mass of the structure shown. Where two headings read alike, the source gives them in different places.

Key:
[1] = test system: rpoA gene (RNA polymerase α subunit) of C. difficile ATCC 630; test: RT-PCR rpoA gene expression; assay type: cell-based, Clostridioides difficile; settings: 12 hours, qPCR
Method: (§1) The antisense effect of the rpoA-TAT conjugate was evaluated using a real-time quantitative reverse-transcriptase polymerase chain reaction (RT-PCR) assay ([11], [12]). Briefly, an overnight culture of C. difficile ATCC 630 was diluted in fresh Mueller-Hilton broth II and added in triplicate to low-adhesion microcentrifuge tubes. […] The tubes were incubated anaerobically at 37°C for 12 hours following which the bacterial pellet in each treatment group was collected by centrifugation at 10,000 × g for 10 minutes. Bacteria were subsequently lysed with recombinant lysostaphin (100 µg/mL) in Tris-EDTA (TE) buffer (1 mol/L Tris, 0.5 mol/L ethylenediaminetetraacetate pH 8, nuclease-free H20), and total RNA was extracted using the TRIzol Max Bacterial Isolation Kit as per the manufacturer’s instructions. Turbo DNAse was used to remove genomic DNA contamination from each sample as per the protocol. cDNA was synthesized using the SuperScript III First-Strand Synthesis Kit as per the manufacturer’s instructions. The relative quantification of cDNA for each treatment group was determined using the iTaq Universal SYBR Green One-Step Kit and CFX96 Real-Time PCR Detection System per the manufacturer’s instructions.
(§2) The constitutively expressed tpi gene was used as an internal control. Real-time RT-PCR results were analyzed using the 2^-ΔΔCT method.

[2] = test system: toxin B (tcdB) gene of C. difficile ATCC 630; test: RT-PCR toxin B (tcdB) gene expression; assay type: cell-based, Clostridioides difficile; settings: 12 hours, qPCR
Method: as §1, §2

[3] = test system: gut microflora strains (Lactobacillus sp., Bacteroides sp., and Bifidobacterium sp.); test: Growth inhibition of representative gut microflora strains (summary); assay type: cell-based; settings: broth microdilution, 48 hours
Method: The susceptibility of gut microflora strains to the rpoA-TAT conjugate was determined using the broth microdilution assay, as described above. Briefly, bacterial suspensions of Bifidobacterium sp. and Bacteroides sp., in supplemented BHIS broth, and Lactobacilli strains, in MRS broth, were added to ultra-low adhesion 96-well plates and serially diluted. The MIC was recorded after 48 hours.

[4] = test system: spoOA gene of C. difficile ATCC 630; test: RT-PCR spoOA gene expression; assay type: cell-based; settings: 12 hours, qPCR
Method: as §1, §2

[5] = test system: C. difficile ATCC BAA 1870; test: Effect of pH on MIC/MBC, C. difficile ATCC BAA 1870; assay type: cell-based, Clostridioides difficile; settings: for MBC: read-out: MBC; for MIC: read-out: MIC
Method: (§3) The susceptibility of C. difficile isolates to the CPP-PNA conjugates or to the CPP alone was determined in vitro as described before with slight modifications ([43] [–] [45]). Briefly, the CPP-PNA conjugates, the CPP alone, and the antibiotics vancomycin and fidaxomicin were added in triplicate to the first row of ultra-low adhesion 96-well plates (Corning Inc., Corning, NY). A suspension of C. difficile equivalent to 0.5 McFarland solution was added to Mueller-Hilton II broth, which was then added to the ultra-low adhesion plate and then serially diluted. The plates were incubated anaerobically for 48 hours at 37°C. The minimum inhibitory concentration was defined as the lowest concentration of the CPP-PNA conjugate that could inhibit bacterial growth when observed visually.
(§4) The MIC and MBC experiments were repeated twice.
The susceptibility of C. difficile (ATCC 630 and ATCC BAA 1870) to the rpoA-TAT conjugate was evaluated over a pH range of 6 to 9 using the broth microdilution method ([43], [46] [–] [48]). The desired pH for susceptibility testing was attained by the addition of either 0.1 N HCL or 1 N NaOH to the media. The experiment was repeated twice.

C. difficile ATCC 630 = test: microbe, parasite or virus in culture
Method: as §3, §4

[6] = test system: toxin A (tcdA) gene of C. difficile ATCC 630; test: RT-PCR toxin A (tcdA) gene expression; assay type: cell-based, Clostridioides difficile; settings: 12 hours, qPCR
Method: as §1, §2

[7] = test system: toxin A and toxin B production by C. difficile 630; test: Toxin production inhibition (ELISA); assay type: cell-based, Clostridioides difficile; settings: 8 hours, ELISA of supernatant, triplicate
Method: After the incubation period, the bacterial count in each treatment group was determined by serial dilution and plating. Toxin content in the supernatant of each treatment group was determined using an enzyme-linked immunosorbent assay (ELISA, tgcBIOMICS) kit, as per the manufacturer’s protocol.

[8] = Clostridioides difficile, BAA1870, pH 6
[9] = Clostridioides difficile, BAA1870, pH 7
[10] = Clostridioides difficile, BAA1870, pH 8

Molecule: GRKKKRRQRRRYK-O-CATGGACAAAAC-NH2 [rpoA-TAT, PNA oligomer antisense to C. difficile rpoA covalently conjugated to the TAT cell penetrating peptide]
- reduction of rpoA gene expression ([1]; 0.125× MIC (1 µM), tpi internal control): 34%
- reduction of rpoA gene expression ([1]; 0.25× MIC (2 µM)): 46.3%
- reduction of rpoA gene expression ([1]; 0.5× MIC (4 µM)): 78.2%
- reduction of toxin B (tcdB) gene expression ([2]; 0.125× MIC (1 µM)): 26%
- reduction of toxin B (tcdB) gene expression ([2]; 0.25× MIC (2 µM)): 51.2%
- reduction of toxin B (tcdB) gene expression ([2]; 0.5× MIC (4 µM)): 74.5%
- concentration without growth inhibition of gut microflora strains [3]: > 32 µM
- reduction of spoOA gene expression ([4]; 0.125× MIC (1 µM)): 45.2%
- reduction of spoOA gene expression ([4]; 0.25× MIC (2 µM)): 58.4%
- reduction of spoOA gene expression ([4]; 0.5× MIC (4 µM)): 68.5%
- MBC ([5]; pH 6): 8 µM
- MIC ([5]; pH 6): 8 µM
- MBC ([5]; pH 7): 8 µM
- MIC ([5]; pH 7): 8 µM
- MBC (C. difficile ATCC 630; aliquots of wells without growth plated on BHIS agar, repeated twice): 8 µM
- MIC (C. difficile ATCC 630; broth microdilution, Mueller-Hilton II broth, anaerobic 48 hours 37°C, visual, triplicate, repeated twice): 8 µM
- reduction of toxin A (tcdA) gene expression ([6]; 0.125× MIC (1 µM)): 41.3%
- reduction of toxin A (tcdA) gene expression ([6]; 0.25× MIC (2 µM)): 50.7%
- reduction of toxin A (tcdA) gene expression ([6]; 0.5× MIC (4 µM)): 71.2%
- reduction of C. difficile toxin production ([7]; 0.125× MIC): 34.9%
- reduction of C. difficile toxin production ([7]; 0.25× MIC): 54.3%
- reduction of C. difficile toxin production ([7]; 0.5× MIC): 55.2%

Molecule: CCc1c(Cl)c(O)c(Cl)c(O)c1C(=O)O[C@H]1[C@H](O)[C@H](OC)[C@H](OC/C2=C\C=C\C[C@H](O)/C(C)=C/[C@H](CC)[C@@H](O[C@@H]3OC(C)(C)[C@@H](OC(=O)C(C)C)[C@H](O)[C@@H]3O)/C(C)=C/C(C)=C/C[C@@H]([C@@H](C)O)OC2=O)O[C@@H]1C [Fidaxomicin, fidaxomicin]
- MBC [5, 8]: 2 µM (≈ 2.12 µg/mL)
- MIC [5, 8]: 1 µM (≈ 1.06 µg/mL)
- MBC [5, 9]: 2 µM (≈ 2.12 µg/mL)
- MIC [5, 9]: 1 µM (≈ 1.06 µg/mL)
- MBC [5, 10]: 4 µM (≈ 4.23 µg/mL)
- MIC [5, 10]: 1 µM (≈ 1.06 µg/mL)
- MBC (C. difficile ATCC 630; Clostridioides difficile, ATCC630): 0.5 µM (≈ 0.529 µg/mL)
- MIC (C. difficile ATCC 630; Clostridioides difficile, ATCC630, 48 h): 0.5 µM (≈ 0.529 µg/mL)
- reduction of C. difficile toxin production ([7]; 0.125× MIC): 45.7%
- reduction of C. difficile toxin production ([7]; 0.25× MIC): 50.6%
- reduction of C. difficile toxin production ([7]; 0.5× MIC): 54%
